One data set has as its target T1, HDAC2 (Homo sapiens, UniProt Q92769).
T1 construct: purchased BPS Bioscience
The data set is described as follows: In vitro HDACs inhibition fluorescence assay, HDAC2. In kind it is biochemical. Conditions: mean ± SEM. Here is the method:
(§1) In Vitro HDACs Inhibition Fluorescence Assay: For the inhibitory activity against HDAC1‐10, enzymes were also procured from BPS Bioscience. The in vitro […] inhibition assays were conducted following the established method described previously.^[ [45] ^] The working concentrations of HDAC1‐10 were 4 × 10^−9 M. The fluorogenic substrate of HDAC1, 2, 3, and 6 was Boc‐Lys (acetyl)‐AMC, and the substrate of HDAC4, 5, 7, 8, 9, and 10 was Boc‐Lys (trifluoroacetyl) AMC. The developer solution consists of 30 mg mL^−1 trypsin and 5 × 10^−6 M TSA. A standing period of 30 min was sufficient before assessing the fluorescence intensity.

For data set [1], the system named is SREBP1c, FASN, SCD1, CPT1A, PGC1α, PPARα, p-AMPKα (Thr172), LKB1 in HepG2 cells. The data set is described as follows: Protein and mRNA expression and AMPKα phosphorylation in FFA-induced HepG2 cells. In kind it is cell-based, human. Here is the method:
For the lipid accumulation experiment, HepG2 cells were incubated for 24 h in DMEM containing 0.5 × 10^−3 M of a mixture of free fatty acids (FFA; oleic acid: palmitic acid = 2:1) and 1% FFA‐free bovine serum albumin to induce intracellular lipid accumulation, together with B6 treatment.
Western blot was carried out as described.^[ [49] ^] In brief, samples were lysed with a lysis buffer. The same quantity of total proteins (40–60 µg) from each sample was separated on SDS‐PAGE followed by transfer onto a nitrocellulose filter membrane and incubation with the indicated antibodies. After incubation with secondary antibodies, the protein bands were visualized using a chemiluminescence imaging system. All samples in the same group were processed simultaneously.
Cells and liver tissues were extracted for total RNA. A reverse transcription kit was used to synthesize cDNA. qRT‐PCR was performed with the primers listed in Table S1 (Supporting Information) using the SYBR green PCR master mix. The coding sequence of the target gene was found in NCBI, and Primer3 (v.0.4.0) was used to design amplification primers. The results were normalized by β‐actin in the corresponding sample.

A further data set addresses T2, HDAC3 (Homo sapiens, UniProt O15379).
T2 construct: purchased BPS Bioscience
As to the kind of experiment: In vitro HDACs inhibition fluorescence assay, HDAC3. In kind it is biochemical. The conditions noted are these: mean ± SEM. As for the experimental part: as §1

Data set [2] is described as follows: Hydrophilicity / dissolution in 5% DMSO aqueous solution (HPLC). In kind it is physicochemical. Conditions: Figure S2. Here is the method: Figure S2. (A) Liquid chromatograms of compounds A8 and B6 in methanol and 5% DMSO aqueous solution, respectively. The chromatograms were determined with an Agilent 1260 HPLC, using an Agilent 5 TC-C18 column (5 μm, 250mm× 4.6 mm). The eluent system was made up of solvent A (water) and solvent B (methanol). Elution conditions: phase B was 85% The peaks were detected at 254 nm at a flow rate was 1.0 mL/min. (B) The peak areas of serially diluted compound B6 were determined under the above-mentioned liquid chromatographic conditions, and a linear regression equation was fitted. (C) The dissolution status/solubility condition of compounds A8 and B6 in a 5% DMSO aqueous solution.

A further data set concerns the target T3, HDAC7 (Homo sapiens, UniProt Q8WUI4).
T3 construct: purchased BPS Bioscience
The data set is described as follows: In vitro HDACs inhibition fluorescence assay, HDAC7. Conditions: mean ± SEM. In kind it is biochemical. Here is the method: as §1

Another data set has as its target T4, HDAC6 (Homo sapiens, UniProt Q9UBN7).
T4 construct: purchased BPS Bioscience
The data set is described as follows: In vitro HDACs inhibition fluorescence assay, HDAC6. The conditions noted are these: mean ± SEM. In kind it is biochemical. Here is the method:
as §1

For another data set, the target named is T5, HDAC4 (Homo sapiens, UniProt P56524).
T5 construct: purchased BPS Bioscience
T5 sequence (P56524 whole entry): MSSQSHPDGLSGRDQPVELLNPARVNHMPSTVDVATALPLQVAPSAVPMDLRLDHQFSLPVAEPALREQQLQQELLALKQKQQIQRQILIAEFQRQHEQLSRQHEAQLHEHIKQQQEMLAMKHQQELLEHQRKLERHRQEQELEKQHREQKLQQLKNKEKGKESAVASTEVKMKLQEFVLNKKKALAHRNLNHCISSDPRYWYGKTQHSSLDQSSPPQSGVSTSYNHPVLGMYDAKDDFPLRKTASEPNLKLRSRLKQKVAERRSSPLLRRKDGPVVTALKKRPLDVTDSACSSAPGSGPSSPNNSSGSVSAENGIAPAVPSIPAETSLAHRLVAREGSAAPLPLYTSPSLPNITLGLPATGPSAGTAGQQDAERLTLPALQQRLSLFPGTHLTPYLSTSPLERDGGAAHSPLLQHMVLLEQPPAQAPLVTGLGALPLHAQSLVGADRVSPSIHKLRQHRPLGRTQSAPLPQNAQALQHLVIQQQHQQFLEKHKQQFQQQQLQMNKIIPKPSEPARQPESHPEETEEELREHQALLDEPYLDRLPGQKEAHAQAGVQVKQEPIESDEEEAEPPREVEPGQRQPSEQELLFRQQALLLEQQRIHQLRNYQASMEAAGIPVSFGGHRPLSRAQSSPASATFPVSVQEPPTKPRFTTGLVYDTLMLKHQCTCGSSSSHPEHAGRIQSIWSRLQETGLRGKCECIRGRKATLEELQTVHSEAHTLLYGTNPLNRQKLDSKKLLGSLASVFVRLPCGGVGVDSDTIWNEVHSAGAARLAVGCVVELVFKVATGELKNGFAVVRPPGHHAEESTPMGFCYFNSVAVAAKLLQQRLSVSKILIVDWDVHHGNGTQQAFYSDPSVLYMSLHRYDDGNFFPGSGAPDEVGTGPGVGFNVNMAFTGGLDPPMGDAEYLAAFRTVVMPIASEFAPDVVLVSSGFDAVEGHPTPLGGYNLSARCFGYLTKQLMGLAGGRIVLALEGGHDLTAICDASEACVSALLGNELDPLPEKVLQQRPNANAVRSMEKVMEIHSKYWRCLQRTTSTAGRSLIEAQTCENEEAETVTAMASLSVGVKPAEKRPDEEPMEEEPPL
As to the kind of experiment: In vitro HDACs inhibition fluorescence assay, HDAC4. It is filed as biochemical. Conditions: mean ± SEM. Here is the method: as §1

A further data set addresses T6, HDAC8 (Homo sapiens, UniProt Q9BY41).
T6 construct: purchased BPS Bioscience
As to the kind of experiment: In vitro HDACs inhibition fluorescence assay, HDAC8. In kind it is biochemical. Here is the method:
as §1

The next data set relates to myristoylation of SHMT2. As to the kind of experiment: Click chemistry assay of SHMT2 myristoylation in HEK293T cells. It is filed as cell-based. The conditions noted are these: HEK293T cells, 0.25, 0.5 and 1 × 10^−6 M, 24 h. As for the experimental part:
For click chemistry experiment, HEK293T cells were first incubated with B6 for 24 h, followed by treatment with Alk14 for 4 h prior to harvest.
After the treatment mentioned in Section 4.2, HepG2 cells were lysed in 1% SDS lysis buffer (50 × 10^−3 M Tris‐HCl pH 8.0, 1% (w/v) SDS) with protease‐phosphatase inhibitor cocktail (ThermoFisher).^[ [47] ^] Click chemistry reactions were performed using commercially available reagents as per manufacturer instructions. 100 µg labeled protein was incubated with 50 µL of streptavidin magnetic beads overnight at 4 °C with end‐over‐end rotation. Following incubation, the beads were collected and rinsed three times with washing buffer. After the final wash, the supernatant was discarded, sample buffer was added to the beads and boiled at 95 °C for 5 min. The samples were further analyzed via western blotting using antibody specific for detection of endogenous SHMT2.

Another data set addresses SIRT2 (Homo sapiens, UniProt Q8IXJ6). As to the kind of experiment: SIRT2 inhibition fluorescence assay (AcIQF substrate). It is filed as biochemical. Here is the method: For the inhibitory activity against SIRT2, substrate is the AcIQF.^[ [46] ^] Dilution series compound was incubated with the SIRT2 enzyme ([…]) for 30 min at 25 °C. Then AcIQF (5 × 10^−3 M) and NAD^+ ([…]) were added to start the reaction at 25 °C. 2 h later, […] stop solution (containing ≈2 U mL^−1 trypsin and 4 × 10^−3 M nicotinamide) was added to stop the reactions. Then the mixture was incubated for 30 min, and the fluorescence intensity was assessed.

A short description of data set [3]: Tissue distribution study in ICR mice (i.p.). In kind it is in vivo. Conditions: i.p. at 5 mg/kg; 0.17, 0.5 and 1 h. As for the experimental part: For the distribution experiment, compound was dissolved in solution containing 10% DMAC, 40% PEG‐400, and 50% water and was delivered to […] male ICR mice by intraperitoneal injection (i.p.) at a dose of 5 mg kg^−1. Then three […] were sacrificed for each 0.17, 0.5, and 1 h time period. Subsequently, the heart, liver, spleen, lung, and kidney were immediately collected. Blood samples were obtained via cardiac puncture and processed by centrifugation to retrieve the plasma fraction. Tissues were flushed with normal saline, dried, weighed, and then homogenized in 5 mL methanol. Tissue samples were centrifuged at 4000 g, and supernatants were stored in freezer at −80 °C before analyzing. 20 µL of the reconstitution solution were analyzed via LC‐MS system. The 8‐week‐old male C57BL/6J mice were provided by GemPharmatech (Nanjing, China).

Setting [4] is: FFA-induced HepG2 cells, 0.5 × 10^−6 M, 24 h.
Setting [5] is: FFA-treated HepG2 cells, 0.5 × 10^−6 M, 24 h.

Read-outs that look alike come from different tables or passages of the source.

T6 sequence (Q9BY41 whole entry): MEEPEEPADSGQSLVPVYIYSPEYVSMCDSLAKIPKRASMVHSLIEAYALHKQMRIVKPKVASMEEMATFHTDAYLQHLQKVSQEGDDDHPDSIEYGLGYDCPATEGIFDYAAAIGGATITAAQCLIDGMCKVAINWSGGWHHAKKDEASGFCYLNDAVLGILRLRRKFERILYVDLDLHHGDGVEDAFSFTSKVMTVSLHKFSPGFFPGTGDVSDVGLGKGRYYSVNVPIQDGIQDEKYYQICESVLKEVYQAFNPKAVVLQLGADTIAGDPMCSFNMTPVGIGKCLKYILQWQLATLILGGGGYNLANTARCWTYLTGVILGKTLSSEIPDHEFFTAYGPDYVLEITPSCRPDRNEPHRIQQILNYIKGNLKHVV
Chain of SIRT2 (Q8IXJ6 whole entry, species assumed): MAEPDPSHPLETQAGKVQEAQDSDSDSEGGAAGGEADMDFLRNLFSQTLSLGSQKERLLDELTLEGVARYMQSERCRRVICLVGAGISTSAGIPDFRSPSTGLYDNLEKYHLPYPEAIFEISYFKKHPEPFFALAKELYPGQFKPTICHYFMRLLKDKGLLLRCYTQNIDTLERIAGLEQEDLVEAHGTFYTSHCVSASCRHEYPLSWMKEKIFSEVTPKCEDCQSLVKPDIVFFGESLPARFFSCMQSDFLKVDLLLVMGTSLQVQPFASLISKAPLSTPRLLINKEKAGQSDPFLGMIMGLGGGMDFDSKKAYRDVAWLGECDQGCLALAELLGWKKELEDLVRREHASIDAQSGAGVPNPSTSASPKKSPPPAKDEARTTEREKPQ
T2 sequence (O15379 whole entry): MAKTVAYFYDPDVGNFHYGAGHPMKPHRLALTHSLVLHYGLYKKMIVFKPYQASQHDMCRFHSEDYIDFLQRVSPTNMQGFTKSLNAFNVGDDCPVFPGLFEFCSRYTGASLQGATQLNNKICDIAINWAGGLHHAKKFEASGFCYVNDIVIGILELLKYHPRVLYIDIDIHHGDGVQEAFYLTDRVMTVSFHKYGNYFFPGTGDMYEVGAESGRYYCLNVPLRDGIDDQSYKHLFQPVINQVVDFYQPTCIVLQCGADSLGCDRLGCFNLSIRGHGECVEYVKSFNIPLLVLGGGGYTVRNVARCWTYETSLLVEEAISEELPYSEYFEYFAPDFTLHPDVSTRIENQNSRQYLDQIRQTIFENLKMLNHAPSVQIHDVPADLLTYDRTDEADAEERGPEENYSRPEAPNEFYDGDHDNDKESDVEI
T2 sequence (Q9Y618 395-489 partner limits assumed): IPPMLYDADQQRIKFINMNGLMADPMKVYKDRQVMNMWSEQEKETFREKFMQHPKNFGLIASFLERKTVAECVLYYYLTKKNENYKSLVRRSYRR
T3 sequence (Q8WUI4 whole entry): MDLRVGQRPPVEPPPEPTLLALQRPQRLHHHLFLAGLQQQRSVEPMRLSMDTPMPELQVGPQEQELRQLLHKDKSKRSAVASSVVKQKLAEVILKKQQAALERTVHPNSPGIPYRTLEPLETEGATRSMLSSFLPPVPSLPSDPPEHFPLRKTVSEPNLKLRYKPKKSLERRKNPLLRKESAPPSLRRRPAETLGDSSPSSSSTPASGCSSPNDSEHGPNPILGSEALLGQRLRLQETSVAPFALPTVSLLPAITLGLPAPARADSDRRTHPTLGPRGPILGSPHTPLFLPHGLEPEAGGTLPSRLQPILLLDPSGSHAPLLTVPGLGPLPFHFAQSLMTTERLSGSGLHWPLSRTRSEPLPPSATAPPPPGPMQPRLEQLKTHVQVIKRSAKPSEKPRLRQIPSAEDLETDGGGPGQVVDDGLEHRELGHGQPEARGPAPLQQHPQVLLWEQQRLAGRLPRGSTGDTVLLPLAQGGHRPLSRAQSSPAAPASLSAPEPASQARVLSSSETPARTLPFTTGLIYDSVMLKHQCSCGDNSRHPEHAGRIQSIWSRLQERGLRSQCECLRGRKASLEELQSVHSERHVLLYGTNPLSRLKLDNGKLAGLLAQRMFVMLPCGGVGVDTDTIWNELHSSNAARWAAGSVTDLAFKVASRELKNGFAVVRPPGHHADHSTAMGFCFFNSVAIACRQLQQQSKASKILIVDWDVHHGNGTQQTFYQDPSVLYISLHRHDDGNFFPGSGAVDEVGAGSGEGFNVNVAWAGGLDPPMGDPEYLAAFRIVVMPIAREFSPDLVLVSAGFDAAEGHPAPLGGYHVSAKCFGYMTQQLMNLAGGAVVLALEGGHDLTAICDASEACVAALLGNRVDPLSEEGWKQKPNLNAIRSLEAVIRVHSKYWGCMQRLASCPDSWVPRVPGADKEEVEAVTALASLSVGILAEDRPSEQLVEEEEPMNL
T4 sequence (Q9UBN7 whole entry): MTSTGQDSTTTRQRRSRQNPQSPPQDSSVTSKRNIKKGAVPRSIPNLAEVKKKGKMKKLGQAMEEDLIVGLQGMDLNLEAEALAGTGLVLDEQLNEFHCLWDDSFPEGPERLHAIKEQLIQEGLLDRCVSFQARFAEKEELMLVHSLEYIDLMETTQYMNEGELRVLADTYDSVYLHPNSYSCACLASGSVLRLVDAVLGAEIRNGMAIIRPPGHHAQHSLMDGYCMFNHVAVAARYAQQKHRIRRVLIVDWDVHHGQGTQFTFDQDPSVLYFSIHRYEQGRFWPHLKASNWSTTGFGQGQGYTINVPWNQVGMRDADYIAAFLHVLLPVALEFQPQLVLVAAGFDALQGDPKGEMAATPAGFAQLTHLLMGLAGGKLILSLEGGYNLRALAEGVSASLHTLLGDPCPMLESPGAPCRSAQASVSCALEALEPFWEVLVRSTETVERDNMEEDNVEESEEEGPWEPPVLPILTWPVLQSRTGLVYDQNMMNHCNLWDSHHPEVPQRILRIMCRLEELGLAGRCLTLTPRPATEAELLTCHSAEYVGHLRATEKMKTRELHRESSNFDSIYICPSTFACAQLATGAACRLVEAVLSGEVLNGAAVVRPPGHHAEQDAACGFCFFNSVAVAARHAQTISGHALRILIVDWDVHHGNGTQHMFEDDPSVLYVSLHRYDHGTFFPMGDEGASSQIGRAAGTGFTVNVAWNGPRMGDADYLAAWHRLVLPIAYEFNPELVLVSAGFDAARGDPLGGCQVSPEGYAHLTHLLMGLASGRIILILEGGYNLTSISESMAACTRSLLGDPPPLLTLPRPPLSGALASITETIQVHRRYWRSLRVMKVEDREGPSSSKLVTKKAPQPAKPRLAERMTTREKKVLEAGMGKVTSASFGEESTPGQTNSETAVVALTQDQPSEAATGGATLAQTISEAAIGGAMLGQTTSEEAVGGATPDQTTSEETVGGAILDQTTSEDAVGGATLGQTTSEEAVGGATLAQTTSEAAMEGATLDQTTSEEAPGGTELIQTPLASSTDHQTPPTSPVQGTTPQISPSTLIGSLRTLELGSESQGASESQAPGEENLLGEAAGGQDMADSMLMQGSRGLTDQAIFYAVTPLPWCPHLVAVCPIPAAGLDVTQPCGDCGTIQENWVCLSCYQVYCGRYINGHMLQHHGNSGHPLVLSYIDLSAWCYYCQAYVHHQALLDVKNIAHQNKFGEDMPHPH
T1 sequence (Q92769 whole entry): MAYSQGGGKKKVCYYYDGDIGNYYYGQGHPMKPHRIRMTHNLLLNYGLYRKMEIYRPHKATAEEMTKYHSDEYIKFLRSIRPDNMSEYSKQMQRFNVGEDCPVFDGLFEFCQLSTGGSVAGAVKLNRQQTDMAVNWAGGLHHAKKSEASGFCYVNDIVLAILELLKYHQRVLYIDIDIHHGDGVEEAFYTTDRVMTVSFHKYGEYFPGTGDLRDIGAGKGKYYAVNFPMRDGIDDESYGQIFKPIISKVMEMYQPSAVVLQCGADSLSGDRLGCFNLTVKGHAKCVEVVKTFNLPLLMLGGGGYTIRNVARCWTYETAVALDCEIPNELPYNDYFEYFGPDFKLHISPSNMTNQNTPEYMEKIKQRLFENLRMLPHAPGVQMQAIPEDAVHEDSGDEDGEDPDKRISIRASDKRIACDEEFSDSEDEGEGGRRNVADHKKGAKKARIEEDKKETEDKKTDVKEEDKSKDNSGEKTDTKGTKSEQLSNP

By IC50 is commonly meant the concentration needed to halve the response being measured. Read a high IC50 as lower potency. With `CCCCCOCCCCCNNC(=O)c1ccc(CNC(=O)c2ccccc2)cc1` [B6], the IC50 against HDAC2 was over 10 µM; at HDAC3, over 10 µM; at HDAC7, over 10 µM; against HDAC6 it was over 10 µM; against HDAC4 it was over 10 µM; at HDAC8 it was 5 µM. In addition, the IC50 against HDAC8 (mean ± SEM) was 4.76 ± 0.159 µM; at SIRT2 (mean ± SEM) it was over 10 µM. For the same molecule, the “LKB1 mRNA levels” value in [1] (FFA-induced HepG2 cells) is “increase in LKB1 mRNA levels”. For the same molecule, the “mRNA levels of CaMKKβ and TAK1” value in data set [1] (FFA-induced HepG2 cells) is recorded as “did not exhibit significant changes”. In data set [1] (setting [4]), the “protein and mRNA expression of CPT1A, PGC1α and PPARα” value is “upregulation of protein and mRNA expression”. In addition, in [1] (setting [4]), the “protein and mRNA expression of SREBP1c, FASN and SCD1” value was “reduction of protein and mRNA expression”. For the same molecule, the “phosphorylation of AMPKα at Thr172” value in data set [1] (setting [5]) is “restores the phosphorylation level”. Also, in data set [1] (setting [5]), the “protein expression of LKB1 and p-LKB1” value is “increase LKB1 expression”. Besides, in data set [2], the “hydrophilicity relative to parent compound A8” value was “improved the hydrophilicity”. Moreover, the “myristoylation of SHMT2” value in the data set with myristoylation of SHMT2 is listed as “markedly increase”. For the same molecule, the “inhibitory activity against other HDAC subtypes, including SIRT2” value against SIRT2 (at a concentration of 10 × 10^−6 M) is listed as “no significant inhibitory activity”. For the same molecule, the “tissue distribution (blood, heart, liver, spleen, lung, kidney)” value in data set [3] is “highest concentrations observed in the liver and kidneys”.

These data come from PMC12005767 (Advanced Science, 2025).
